The text below walks through data of US8133903B2, “Methods of use of inhibitors of phosphodiesterases and modulators of nitric oxide, reactive oxygen species, and metalloproteinases in the treatment of peyronie's disease, arteriosclerosis and other fibrotic diseases” (Los Angeles Biomedical Research Institute at Harbor—UCLA …, priority 2003, dated 2012).

Molecules are shown by their SMILES.

Data set [1] relates to fibroblast cultures from human PD plaque. Description: Collagen I/III and ASMA immunocytochemistry with QIA in fibroblast cultures from human PD plaque. The format is cell-based. The conditions noted are these: for number of ASMA positive cells (myofibroblasts): control 37%; for synthesis of collagen III: PDE inhibitors. An excerpt: (§1) Primary human cell cultures: Human fibroblast primary cultures were obtained from fragments of PD plaque or TA essentially according to Smith and Liu (2002), and their purity was established by immunohistochemistry, as detailed below. New primary cultures were obtained from fragments of PD plaque or TA that were washed in Hanks solution, minced in a fibroblast growth medium (FGM) (BioWhittaker Inc., Walkersville, Md.) and 20% fetal bovine serum (FBS), and plated onto a 25 cm^2 culture flask per specimen (Vernet et al., 2002). Fragments were left undisturbed until attachment for about 1 week. Once the monolayer started to develop, the fragment was removed. Medium with 10% FBS was changed once a week and when cells achieved approximately 80% confluence (3-4 weeks) they were trypsinized and split onto 10 cm plates. Cells were allowed to grow again to 80% confluence, with medium changed twice a week. The cells collected from this passage were considered as passage 1. Successive passages were performed at 1/3 split ratio, and studies were carried out on cells from passages 3 onwards. Studies were performed with PD cells from the 4th to the 10th passages. Cells were incubated on: a) 75 cm^2 flasks for RNA isolation; b) 6-well plates for protein isolation; and c) 8-well removable chambers for cytochemistry and immunocytochemistry. Treatments with different additions were initiated 24 hours after plating and continued for different periods.
In the case of cell cultures, at completion of incubations, slides were removed from the chambers and cells were fixed for immunodetection for 20 min in 4% buffered formalin at room temperature for α-smooth muscle actin (ASMA) (as a myofibroblast marker), vimentin (as a general fibroblast marker), and in certain cases for PDE5 and PDE4, or in ethanol at −20 C for collagen I and III (Vernet et al., 2002). The cells were quenched, blocked with normal goat serum and incubated with monoclonal primary antibodies for ASMA and vimentin (Sigma Immunohistology Kits, Sigma Chemical Co, St. Louis, Mo.), collagen I, and collagen III (1:40) (Chemicon International, Temecula, Calif.), overnight at 4° C. (Vernet et al., 2002; Ferrini et al., 2002). Processing was according with the manufacturer's instructions for ASMA, vimentin and collagen, consisting in the respective monoclonal antibodies and an anti-mouse biotinylated secondary antibody, followed by avidin-biotinylated HRP and the 3-amino-9-ethylcarbazol (AEC) chromogen. For PDE5A, the antibodies were as described above. Negative controls omitted the first antibodies or were replaced by IgG isotype at the same concentration of the first antibodies. Counterstaining was done with Mayer's hematoxylin. All the slides were mounted with Aqua Mount (Lerner, Pittsburgh, Pa.). For PDE4, the anti PDE4A and PDE4B affinity purified IgGs used for western blot was employed, and in addition the anti-PDE4A4 and anti-PDE4D (detecting variants 1-5) from the same source (FabGennix Inc.) were used.
(§2) The quantitation of the staining obtained by either histochemical or immunohisto/cytochemical techniques was performed by computerized densitometry using the ImagePro 4.01 program (Media Cybernetics, Silver Spring, Md.), coupled to an Olympus BHS microscope equipped with a Spot RT digital camera or VCC video camera (Wang et al., 2001; Ferrini et al., 2001a, 2001b; Davila et al., 2003b).

The test system is the same in data set [2]. Description: TUNEL apoptosis in fibroblast cultures from human PD plaque.
Procedure: Cells incubated in 8-well chamber slides were allowed to grow to 50-60% confluence. At this point, cells received in duplicate sildenafil, pentoxifylline, or 8-Br cGMP at the concentrations indicated, and were allowed to propagate for 3 days without changing medium. In certain cases SNAP was added and replaced daily after changing the medium (Vernet et al., 2002). All studies were done in duplicate or triplicate.
For cell cultures, the cells were fixed in 4% formaldehyde for 30 min on ice, and post-fixed with ethanol-acetic acid 2/1 for 5 min at −20 C. Then the above procedure was applied, except that the proteinase K was omitted.
The number of positive cells was counted in a computerized grid against the total number of cells determined by counterstaining, and results were expressed as a percentage of positive cells over total cells. […] The apoptotic index (rate of programmed cell death) was calculated as the percentage of apoptotic cells within the total number of cells in a given area (non-apoptotic nuclei plus apoptotic cells). In all cases, five non-overlapping fields were screened per tissue section or per well. Three sections per tissue specimen from groups of five animals, or two wells per experimental point in cell incubations, were then used to calculate the means+/−SEM.
The test system is the same in data set [3]. Description: cGMP and cAMP enzyme immunoassays in fibroblast cultures from human PD plaque. It is filed as cell-based. The conditions noted are these: for cGMP levels as % of control levels: 3-day incubation.
Text: as §1
The presence of PDEs in the PD fibroblasts in culture was confirmed by the ability of increasing concentrations of sildenafil and pentoxifylline to raise the basal cGMP and cAMP levels in triplicate wells, either in the absence or the presence of the NO donor, SNAP (S-nitroso-N-acetyl penicillamine) (Alexis Biochemicals, San Diego, Calif.) added daily at 100 μM, as measured by cGMP and cAMP EIA (enzyme immuno absorption) kits (Cayman Chemical, Ann Arbor, Mich.). Experiments were performed in duplicate. Values were expressed as pmoles cGMP or cAMP/mg protein. To normalize for differences between experiments, the changes in cGMP and cAMP levels exerted by sildenafil and pentoxifylline were expressed as % of their respective control values in the absence of the PDE inhibitors.

In data set [4] the test system is TGF-β1-induced fibrotic plaque in the rat tunica albuginea. Description: TUNEL apoptosis in the TGF-β1-induced plaque of the rat tunica albuginea. It is filed as in vivo. The conditions noted are these: for apoptotic index in the plaque: oral in drinking water, 100 mg/l, 45 days following TGF-β1 injection. As to the method:
(§3) TGF-β1 rat model. Male Fisher 344 rats, 9-11 month old purchased from the NIH/NIA colony (Harlan Sprague-Dawley, Inc., San Diego, Calif.) and maintained under controlled temperature and lighting, were anesthetized and injected in the penile TA at the middle of the penis with either vehicle only (saline, group 1) or 0.5 μg recombinant human TGF-β1 (Biotech Diagnostic, Laguna Niguel, Calif., groups 2-5) as disclosed (Ferrini et al., 2002; Vernet et al., 2002). After the injection, groups 1 and 2 were given drinking water while the other groups received water with L-arginine (2.25 g/kg/day, group 3) (Moody et al., 1997), or sildenafil (10 mg/kg/day, group 4) or pentoxifylline (10 mg/kg/day, group 5). Forty-five days later, or as indicated, animals were sacrificed and perfused through the left ventricle with saline followed by 4% formalin ((Ferrini et al., 2002; Vernet et al., 2002). After the penises were excised, the penile skin was denuded by removing the glans and adhering non-crural tissue. The penile shaft was separated from the crura and 2-3 mm transverse slices were cut around the site of the saline or TGF-β1 injection. All tissues were post-fixed overnight in 4% formalin, washed in PBS and stored at 4° C.

The test system is the same in data set [5]. Briefly: TGF-β1 rat model of Peyronie's disease, plaque and collagen deposition by Masson staining with QIA. It is filed as in vivo. Particulars: for plaque size (Masson staining, collagen fiber/cell-lacunae area ratio, width of the tunica): oral in drinking water, 100 mg/l, 45 days following TGF-β1 injection. As to the method: as §3
In the case of tissue sections, the determinations of the collagen/smooth muscle ratio were carried out with Masson trichrome (Ferrini et al., 2002; Davila et al., 2003b) on adjacent 5 μm paraffin-embedded cross-sections from the human normal tunical or plaque tissues, or from a 2 mm area around the site of injection in the rat saline- and TGF-β1-injected shaft tissues. Other distal sections were obtained along the rat penile shaft.
as §2

Data set [6] relates to normal human TA and PD fibroblast cultures. Description: Fibroblast numbers in normal human TA and PD cultures. It is filed as cell-based. The conditions noted are these: both normal human TA and PD cultures.
Text: as §1, with “Treatments with different additions were initiated 24 hours after plating and continued for different periods.” left out

A further data set concerns the target PDE5A3 (Homo sapiens, UniProt O76074). Particulars: cited from earlier work.
For data set [7] the following is noted: cited from earlier work.
Setting [8] is: in the presence of SNAP (100 uM), increasing concentrations.

As for `Nc1nc2c(nc(Br)n2[C@@H]2O[C@@H]3COP(=O)(O)O[C@H]3[C@H]2O)c(=O)[nH]1` [8 Br-cGMP], the “reduction in the number of cells expressing collagen I” value in data set [1] (10 μM, 3 days) was 30%. For the same compound, the “ASMA expression per cell (myofibroblast differentiation)” value in data set [1] (400 μM, 3 days) is listed as “decreased significantly”. Moreover, the “number of cells expressing collagen I” value in data set [1] (400 μM, 3 days, compared with 10 μM) was “did not induce further decrease”. Further, in data set [1] (3 days), the “collagen I expression per cell” value is “reduced only moderately and non-significantly”; the “relative number of ASMA positive cells” value is “no effect”. Further, the “collagen I production by the cells” value in data set [1] (levels as low as 10 uM) was “inhibited collagen I production”. Besides, the “apoptosis by TUNEL” value in data set [2] (100 uM, control 7.5+/−0.4) is given as 20.5+/−1.1 cells per field. Besides, in data set [2] (3 days, did not achieve statistical significance), the “increase of apoptosis (apoptotic index, TUNEL, image analysis)” value was 2.3 fold. Besides, the “intracellular cGMP levels” value in data set [3] (100 uM, control 0.02) stood at 1.83 nmoles/10^6 cells. Further, the “increase of cGMP levels in cell extracts” value in data set [3] (8 Br-cGMP at 10 uM) stood at 6.4 fold. The “increase of cGMP levels in cell extracts” value in data set [3] (8 Br-cGMP at 100 μM) is listed as 38.7 fold.
With `N=C(N)NCCC[C@H](N)C(=O)O` [L-arginine], the “apoptotic index (apoptotic cells/total number of cells) in the plaque” value in data set [4] (oral L-arginine (2.25%)) is listed as “no significant difference”. For the same compound, the “number of apoptotic cells per field in the PD-like plaque” value in data set [4] (oral L-arginine (2.25%), vs control animals) is “increase”. Besides, the “size of the TGF-β1-induced plaque (Masson staining, collagen fiber/cell-lacunar area ratio)” value in data set [5] (oral L-arginine in drinking water (2.25%), 45 days after TGF-β1 injection) is “considerable decrease in the size”.
As to `CC(=O)N[C@H](C(=O)O)C(C)(C)SN=O` [SNAP, S-Nitroso-N-acetyl penicillamine], in data set [1] (NO donor in culture), the “collagen I synthesis in all the cells” value is given as “inhibitory action” and the myofibroblast differentiation result is on record as “inhibitory action”. Further, the fibroblast numbers result in data set [6] was “reduced fibroblast numbers”. Further, the “increase of cGMP levels in cell extracts” value in data set [3] (100 uM SNAP, 3 days, daily replacement, basal 5.0+/−0.4 pmol/mg protein) turned out to be 5.0 fold. Also, in data set [3] (after 3 days with SNAP, basal 42.6+/−12.7 pmol/mg protein), the cAMP levels entry is listed as “did not vary significantly”.
Take `CC(=O)CCCCn1c(=O)c2c(ncn2C)n(C)c1=O` [pentoxifylline]: in data set [1] (3 days), the “number of ASMA positive cells (myofibroblasts)” value was “about 24%” and the “synthesis of collagen III” value was “did not decrease, but even increased”. The “apoptotic index in the plaque” value in data set [4] is given as “intensification of the apoptotic index, especially for pentoxifylline”. For the same compound, the “cGMP levels as % of control levels” value in data set [3] (setting [8]) is on record as “did not increase significantly”. In addition, the “cAMP levels as % of control levels” value in data set [3] (in the presence of SNAP (100 uM), increasing concentrations, 3 days) is on record as “very effective in increasing cAMP levels”. The “plaque size (Masson staining, collagen fiber/cell-lacunae area ratio, width of the tunica)” value in data set [5] was “considerable reduction in plaque size”.
A word on the half-life: it is the time in which the quantity being followed falls by half. `CCCc1nn(C)c2c(=O)[nH]c(-c3cc(S(=O)(=O)N4CCN(C)CC4)ccc3OCC)nc12` [sildenafil]: in data set [1] (3 days), the “number of ASMA positive cells (myofibroblasts)” value is recorded as “about 24%” and the “synthesis of collagen III” value is given as “did not decrease, but even increased”. Moreover, the “sensitivity of PDE5A3 to sildenafil compared with PDE5A1” value on PDE5A3 is listed as “twice as sensitive”. In addition, the “apoptotic index in the plaque” value in data set [4] is recorded as “intensification of the apoptotic index”. Further, the half-life in data set [7] was 4 to 6 h. Further, the cGMP levels result in data set [3] (in the absence of SNAP) is on record as “did not significantly stimulate”. In addition, the “cGMP levels as % of control levels” value in data set [3] (setting [8]) is reported as “increased dose-dependently”. The “plaque size (Masson staining, collagen fiber/cell-lacunae area ratio, width of the tunica)” value in data set [5] is “considerable reduction in plaque size”.
